Data on four compounds can be found in patent US9186358B2, “Combination therapy for treating or preventing an inflammatory skin disorder” (GALDERMA LABORATORIES, L.P., priority 2009, dated 2015).

Molecules are shown by their SMILES.

Assay [1] deals with AA-induced ear edema. Description: Arachidonic acid (AA)-induced acute ear edema in mice. The format is in vivo, mice (BALB/c ByJ Rj). Further details: Edema Mean: unit not given here. The conditions noted are these: for reduced AA-induced ear edema in mice by up to: single topical application, highest over 1, 2 and 4 h; for Edema Mean / Inhibition vs AA %: topical with AA 4%. The protocol:
Positive control compound, indomethacin (CD0016), was dissolved in the AA solution at 5% by weight. […] Different compounds at different dosages were tested on 10 groups of animals, each group having 5 mice (see Table 4). […] After the last measurement, the animals were sacrificed by carbon dioxide following a preapproved protocol. The mean of the ear thickness measured from 5 animals in each of the 10 groups was calculated. The anti-inflammatory activity of a test compound was measured by its ability to reduce AA-induced ear edema, i.e., as the percentage of reduction in ear thickness of animals treated with the test compound and AA as compared with that treated with AA alone.

Assay [2] relates to TPA-induced ear edema. Description: TPA-induced ear edema in mice. Details: Ear Edema Mean: unit not given beside the values. The format is in vivo, mice (BALB/c ByJ Rj). The conditions noted are these: single topical application with TPA 0.01%, 6 h. Here is the method:
The edema inducer, TPA, was dissolved in ethanol at 0.01% by weight to obtain a TPA solution (“TPA solution”). […] Positive control compound, betametasone valerate (CD0153), was dissolved in the TPA solution at 0.01% by weight. […] Different compounds at different dosages were tested on 10 groups of animals, each group having 5 mice (see Table 2). [table] The ear thickness of each of the 50 animals was measured at 6 hours after the compound application. After the measurement, the animals were sacrificed by carbon dioxide following a preapproved protocol. The mean of the ear thickness measured from 5 animals in each of the 10 groups was calculated. The anti-inflammatory activity of a test compound was measured by its ability to reduce TPA-induced ear edema, i.e., as the percentage of reduction in ear thickness of animals treated with both the test compound and TPA as compared with that treated with TPA alone.

Where [3] appears, read: CD07805 at 0.2%, 1 h Measurement.
Where [4] appears, read: CD07805 at 0.2%, 2 h Measurement.
The mark [5] stands for this setting: CD07805 at 0.2%, 4 h Measurement.
The mark [6] stands for this setting: CD08100/02 at 0.1%, 1 h Measurement.
Setting [7] is: CD08100/02 at 0.1%, 2 h Measurement.
[8] abbreviates: CD08100/02 at 0.1%, 4 h Measurement.
Where [9] appears, read: CD08100/02 at 0.3%, 1 h Measurement.
The mark [10] stands for this setting: CD08100/02 at 0.3%, 2 h Measurement.
Where [11] appears, read: CD08100/02 at 0.3%, 4 h Measurement.
Setting [12] is: CD08100/02 at 1%, 1 h Measurement.

With `COc1ccc2c(c1)c(CC(=O)O)c(C)n2C(=O)c1ccc(Cl)cc1` [CD0016, indomethacin], the “reduced AA-induced ear edema in mice by up to” value (“reduced AA-induced ear edema” for short) in assay [1] (CD0016 at 5%) is recorded as “up to 94.2%”. In addition, the “Edema Mean” value in assay [1] (CD0016 at 5%, 1 h Measurement) is on record as 0.8; in assay [1] (CD0016 at 5%, 2 h Measurement) it was 0.6; in assay [1] (CD0016 at 5%, 4 h Measurement), 0.4. Moreover, the “Inhibition vs AA %” value in assay [1] (CD0016 at 5%, 1 h Measurement) worked out at 93.1%; in assay [1] (CD0016 at 5%, 2 h Measurement) it was 94.2%; in assay [1] (CD0016 at 5%, 4 h Measurement), 93.5%.
As for `Brc1c(NC2=NCCN2)ccc2nccnc12` [CD07805, (5-bromo-quinoxalin-6-yl)-(4,5-dihydro-1H-imidazol-2-yl)-amine], in assay [2] (CD07805 at 0.2%), the “Ear Edema Mean” value worked out at 8.60 and the “Inhibition vs TPA (%)” value was determined as 46.3%. Further, the “reduced AA-induced ear edema” value in assay [1] (CD07805 at 0.2%) was “up to 80.8%”. In assay [1] (setting [3]), the “Edema Mean” value stood at 2.8 and the “Inhibition vs AA %” value is recorded as 75.9%. Moreover, in assay [1] (setting [4]), the “Edema Mean” value is listed as 2 and the “Inhibition vs AA %” value was 80.8%. In addition, in assay [1] (setting [5]), the “Edema Mean” value is 1.6 and the “Inhibition vs AA %” value was determined as 74.2%.
With `O=C(O)Cc1ccccc1Nc1c(Cl)cccc1Cl` [CD08100/02, 2-[2-(2,6-dichlorophenylamino)phenyl]acetic acid], the “Ear Edema Mean” value in assay [2] (CD08100/02 at 0.1%) was found to be 5.80; in assay [2] (CD08100/02 at 0.3%), 6.40; in assay [2] (CD08100/02 at 1%), 4.80. The “Inhibition vs TPA (%)” value in assay [2] (CD08100/02 at 0.1%) turned out to be 63.8%; in assay [2] (CD08100/02 at 0.3%), 60.0%; in assay [2] (CD08100/02 at 1%) it was 70.0%. Besides, the “reduced AA-induced ear edema” value in assay [1] (CD08100/02 at 0.1%) was “up to 71.2%”; in assay [1] (CD08100/02 at 0.3%) it was not above 80.6%; in assay [1] (CD08100/02 at 1%) it was not above 83.9%. The “Edema Mean” value was 4.2 in assay [1] (setting [6]); 3 in assay [1] (setting [7]); 2 in assay [1] (setting [8]); 3.6 in assay [1] (setting [9]); 2.2 in assay [1] (setting [10]); 1.2 in assay [1] (setting [11]). For the same compound, the “Edema Mean” value in assay [1] (setting [12]) turned out to be 2; in assay [1] (CD08100/02 at 1%, 2 h Measurement), 1; in assay [1] (CD08100/02 at 1%, 4 h Measurement) it was 1. Moreover, the “Inhibition vs AA %” value in assay [1] (setting [6]) was 63.8%; in assay [1] (setting [7]), 71.2%; in assay [1] (setting [8]), 67.7%; in assay [1] (setting [9]), 69.0%; in assay [1] (setting [10]), 78.8%; in assay [1] (setting [11]), 80.6%. In addition, the “Inhibition vs AA %” value in assay [1] (setting [12]) came to 82.8%.
Regarding `CCCCC(=O)O[C@]1(C(=O)CO)[C@@H](C)C[C@H]2[C@@H]3CCC4=CC(=O)C=C[C@]4(C)[C@@]3(F)[C@@H](O)C[C@@]21C` [CD0153, betametasone valerate], in assay [2] (CD0153 at 0.01%), the “Ear Edema Mean” value turned out to be 0.40 and the “Inhibition vs TPA (%)” value is 97.5%.
